Measured values as given in patent US20240041042A1, “1-(PYRIDYL)-5-AZINYLPYRAZOLE DERIVATIVES, AND THEIR USE FOR CONTROL OF UNDESIRED PLANT GROWTH” (Bayer Aktiengesellschaft, priority 2020, published 2024).

How the values were obtained:
Format in all cases: in vivo
[1] = tested on: Setaria viridis (SETVI); test: Pre-emergence herbicidal action against SETVI
Summary of the method: (§1)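 Application rates ran to 320 g/ha or lower, with several dosages tested on the same weeds. The compound, as wettable powder or emulsion concentrate, is sprayed pre-emergence onto soil over sown seeds; greenhouse growth follows, and effect is rated visually after roughly 3 weeks.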

[2] = tested on: Lolium rigidum (LOLRI); test: Post-emergence herbicidal action against LOLRI
Summary of the method: (§2)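 Greenhouse plants sprayed at the one-leaf stage, 2–3 weeks after sowing, with WP or EC formulations plus 0.5% additive at 600 l/ha water. Activity rated visually after about 3 weeks versus untreated controls (100% = dead, 0% = like control), at 320 g/ha or lower.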

[3] = tested on: Polygonum convolvulus (POLCO); test: Post-emergence herbicidal action against POLCO
Summary of the method: as §2

[4] = tested on: Lolium rigidum (LOLRI); test: Pre-emergence herbicidal action against LOLRI
Summary of the method: as §1

[5] = tested on: Echinochloa crus-galli (ECHCG); test: Post-emergence herbicidal action against ECHCG
Summary of the method: as §2

[6] = tested on: Alopecurus myosuroides (ALOMY); test: Post-emergence herbicidal action against ALOMY; details: visual rating about 3 weeks after treatment vs untreated controls (100% = plants have died, 0% = like control plants)
Summary of the method: as §2

[7] = tested on: Echinochloa crus-galli (ECHCG); test: Pre-emergence herbicidal action against ECHCG
Summary of the method: as §1

[8] = tested on: Amaranthus retroflexus (AMARE); test: Pre-emergence herbicidal action against AMARE; details: visual scoring after about 3 weeks vs untreated controls
Summary of the method: as §1

[9] = tested on: Viola tricolor (VIOTR); test: Pre-emergence herbicidal action against VIOTR
Summary of the method: as §1

[10] = tested on: Pharbitis purpurea (PHBPU); test: Pre-emergence herbicidal action against PHBPU
Summary of the method: as §1

| SMILES | Pre-emergence action against SETVI in % ([1]; dosage 80 g/ha) | Pre-emergence action against SETVI in % ([1]; dosage 320 g/ha) | Post-emergence action against LOLRI in % ([2]; dosage 80 g/ha) | Post-emergence action against LOLRI in % ([2]; dosage 320 g/ha) | Post-emergence action against POLCO in % ([3]; dosage 80 g/ha) | Post-emergence action against POLCO in % ([3]; dosage 320 g/ha) | Pre-emergence action against LOLRI in % ([4]; dosage 80 g/ha) | Pre-emergence action against LOLRI in % ([4]; dosage 320 g/ha) | Post-emergence action against ECHCG in % ([5]; dosage 80 g/ha) | Post-emergence action against ECHCG in % ([5]; dosage 320 g/ha) | Post-emergence action against ALOMY in % ([6]; 80 g/ha) | Post-emergence action against ALOMY in % ([6]; 320 g/ha) | Pre-emergence action against ECHCG in % ([7]; dosage 80 g/ha) | Pre-emergence action against ECHCG in % ([7]; dosage 320 g/ha) | Pre-emergence action against AMARE in % ([8]; 80 g/ha) | Pre-emergence action against AMARE in % ([8]; 320 g/ha) | Pre-emergence action against VIOTR in % ([9]; 320 g/ha, Viola tricolor) | Pre-emergence action against VIOTR in % ([9]; dosage 80 g/ha) | Pre-emergence action against PHBPU in % ([10]; dosage 80 g/ha) | Pre-emergence action against PHBPU in % ([10]; dosage 320 g/ha) |
| --- | --- | --- | --- | --- | --- | --- | --- | --- | --- | --- | --- | --- | --- | --- | --- | --- | --- | --- | --- | --- |
| CCOC(=O)[C@@H](C)Oc1nn(-c2ccccn2)c(-c2cncc(F)c2)c1Cl [Example I-184] | 100% | 100% | 90% | 90% | 80% | 80% | 100% | 100% | 90% | 90% | 80% | 90% | 90% | 100% | 100% | 100% | 100% | 100% | 80% | 90% |
| CCOC(=O)COc1nn(-c2nc(F)ccc2F)c(-c2cncc(F)c2)c1C1CC1 [Example I-149] | 100% | 100% | 80% | 90% | – | 80% | 100% | 100% | 80% | 80% | 80% | 90% | 90% | 100% | 90% | 100% | 100% | 100% | 80% | 90% |
| COC(=O)C(C)COC(=O)C(C)Oc1nn(-c2ccccn2)c(-c2ccc(F)nc2)c1Cl (stereo not drawn) [Example I-291] | 90% | 90% | 80% | 80% | 80% | 80% | 90% | 100% | 80% | 80% | 80% | 80% | – | 90% | 80% | 100% | 100% | 90% | – | 80% |
| COCCOC(=O)COc1nn(-c2ccccn2)c(-c2ccc(F)nc2)c1Br [Example I-96] | 100% | 100% | 90% | 90% | 80% | 80% | 90% | 100% | 90% | 90% | 90% | 90% | 80% | 100% | 90% | 100% | 90% | – | 90% | 90% |
| CCOC(=O)COc1nn(-c2ccccn2)c(-c2ccc(F)nc2)c1Cl [Example I-85] | 100% | 100% | 100% | 100% | 90% | 90% | – | 100% | 90% | 90% | – | 100% | 100% | 100% | 90% | 100% | 100% | 100% | 90% | 100% |
| COC(=O)COc1nn(-c2ncccc2F)c(-c2ccc(F)nc2)c1Br [Example I-07] | – | 100% | – | 90% | 80% | 80% | – | 100% | – | 90% | 90% | 100% | – | 100% | 90% | 90% | 100% | 90% | – | 90% |
